Four compounds from publication PMC11844072, “Novel 5,6-dichlorobenzimidazole derivatives as dual BRAFWT and BRAFV600E inhibitors: design, synthesis, anti-cancer activity and molecular dynamics simulations” (BMC Chemistry, 2025) can be followed below.

The test system of experiment [1] is TK-10. As to the kind of experiment: NCI 60 single concentration growth inhibition. To be noted: Homo sapiens, TK-10, Renal cancer, read-out: GI%. Format: cell-based, human. The gist of the method:
(§1)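 Growth measured by sulforhodamine B protein staining (515 nm) after 48 h drug exposure at 37 °C, following 24 h plating in RPMI 1640 with 5% FBS and 2 mM L-glutamine. Compounds first tested at one 10 µM dose, then five-dose series (10-fold or ½ log steps); percent growth relative to time-zero and untreated wells.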

The subject of experiment [2] is SNB-19. As to the kind of experiment: NCI 60 single concentration growth inhibition. Format: cell-based, human. The settings on record: Homo sapiens, SNB-19, CNS cancer, read-out: GI%. In short, it runs like this: as §1
The subject of experiment [3] is OVCAR-4. The experiment is described as follows: NCI 60 single concentration growth inhibition. Format: cell-based, human. To be noted: Homo sapiens, OVCAR-4, Ovarian cancer, read-out: GI%. The gist of the method:
as §1

In experiment [4] the test system is OVCAR-3. As to the kind of experiment: NCI 60 single concentration growth inhibition. Format: cell-based, human. To be noted: Homo sapiens, OVCAR-3, Ovarian cancer, read-out: GI%. In short, it runs like this:
as §1

Experiment [5] concerns HT29. As to the kind of experiment: NCI 60 single concentration growth inhibition. Format: cell-based, human. The settings on record: Homo sapiens, HT-29, HT29, Colon cancer, read-out: GI%. The gist of the method: as §1
Experiment [6] relates to DU-145. The experiment is described as follows: NCI 60 single concentration growth inhibition. To be noted: Homo sapiens, DU-145, Prostate cancer, read-out: GI%. Format: cell-based, human. In short, it runs like this: as §1
Experiment [7] has as its system HOP-92. As to the kind of experiment: NCI 60 single concentration growth inhibition. Format: cell-based, human. The settings on record: Homo sapiens, HOP-92, Non-small cell lung cancer, read-out: GI%. The gist of the method: as §1
The test system of experiment [8] is NCI-H460. As to the kind of experiment: NCI 60 single concentration growth inhibition. The settings on record: Homo sapiens, NCI-H460, Non-small cell lung cancer, read-out: GI%. Format: cell-based, human. The gist of the method:
as §1

The test system of experiment [9] is SK-MEL-5. The experiment is described as follows: NCI 60 single concentration growth inhibition. Format: cell-based, human. The settings on record: Homo sapiens, SK-MEL-5, Melanoma, read-out: GI%. The gist of the method:
as §1

For experiment [10], the system named is CCRF-CEM. As to the kind of experiment: NCI 60 single concentration growth inhibition. Format: cell-based, human. The settings on record: Homo sapiens, Leukemia, read-out: GI%. The gist of the method:
as §1

The subject of experiment [11] is HL-60(TB). The experiment is described as follows: NCI 60 single concentration growth inhibition. Format: cell-based, human. The settings on record: Homo sapiens, Leukemia, read-out: GI%. The gist of the method:
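Read-out is SRB absorbance at 515 nm after TCA fixation (10% for adherent lines, 16% for suspension lines). Drugs were applied for 48 h following a 24 h plating period. Growth percentages came from time-zero, control and treated absorbances.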

In experiment [12] the test system is OVCAR-5. As to the kind of experiment: NCI 60 single concentration growth inhibition. Format: cell-based, human. To be noted: Homo sapiens, OVCAR-5, Ovarian cancer, read-out: GI%. The gist of the method:
as §1

Experiment [13] relates to EKVX. As to the kind of experiment: NCI 60 single concentration growth inhibition. Format: cell-based, human. To be noted: Homo sapiens, Non-small cell lung cancer, read-out: GI%. In short, it runs like this: as §1
The subject of experiment [14] is CAKI-1. The experiment is described as follows: NCI 60 single concentration growth inhibition. Format: cell-based, human. The settings on record: Homo sapiens, CAKI-1, Renal cancer, read-out: GI%. The gist of the method:
as §1

Experiment [15] deals with BT-549. As to the kind of experiment: NCI 60 single concentration growth inhibition. Format: cell-based, human. The settings on record: Homo sapiens, BT-549, Breast cancer, read-out: GI%. The gist of the method: as §1
Experiment [16] deals with UACC-62. As to the kind of experiment: NCI 60 single concentration growth inhibition. Format: cell-based, human. To be noted: Homo sapiens, UACC-62, Melanoma, read-out: GI%. The gist of the method:
as §1

For experiment [17], the system named is MDA-MB-435. The experiment is described as follows: NCI 60 single concentration growth inhibition. To be noted: Homo sapiens, MDA-MB-435, Melanoma, read-out: GI%. Format: cell-based, human. In short, it runs like this: as §1
Experiment [18] concerns NCI 60 cancer cell line panel. As to the kind of experiment: NCI 60 single concentration growth inhibition, panel mean. Format: cell-based. To be noted: Homo sapiens, mean over NCI 60 panel, read-out: Mean GI%. The gist of the method: as §1

As to `COc1ccc(-c2nc3cc(Cl)c(Cl)cc3n2CC(=O)NN=Cc2ccc(OC)c(O)c2)cc1` [Compound 10k, 2-(5,6-Dichloro-2-(4-methoxyphenyl)-1H-benzo[d]imidazol-1-yl)-N'-(3-hydroxy-4-methoxybenzylidene)acetohydrazide], the inhibition at 10 µM stood at 28% in [1]; 40.3% in experiment [2]; 47.3% in experiment [3]; 23.3% in experiment [4]; 30.2% in experiment [5]; 26.4% in [6]. In addition, the inhibition at 10 µM in [7] is 12%; in experiment [8], 24.8%; in experiment [9], 62.2%; in [10], 43.8%; in experiment [11] it was 60.8%; in experiment [12], less than 5%. The inhibition at 10 µM in experiment [13] worked out at 56.4%; in [14] it was 48.2%; in [15], 31.7%; in experiment [16] it was 35.4%; in [17], 46.8%; in [18] it was 35.4%.

Take `COc1ccc(-c2nc3cc(Cl)c(Cl)cc3n2CC(=O)NN=Cc2ccc(O)c(OC)c2)cc1` [Compound 10l, 2-(5,6-Dichloro-2-(4-methoxyphenyl)-1H-benzo[d]imidazol-1-yl)-N'-(4-hydroxy-3-methoxybenzylidene)acetohydrazide]: the inhibition at 10 µM was 16.2% in experiment [1]; 37.3% in experiment [2]; 52.9% in experiment [3]; 28.7% in experiment [4]; 13% in experiment [5]; 31.8% in experiment [6]. In addition, the inhibition at 10 µM in experiment [7] was 40.1%; in experiment [8] it was 31%; in experiment [9], 57.9%; in [10], 46.9%; in [11], 44.5%; in experiment [12], less than 5%. Moreover, the inhibition at 10 µM stood at 51.9% in [13]; 55.3% in experiment [14]; 50.2% in experiment [15]; 33.6% in experiment [16]; 42.2% in experiment [17]; 34.6% in experiment [18].

In the case of `COC(=O)COc1cc(C=NNC(=O)Cn2c(-c3ccc(OC)cc3)nc3cc(Cl)c(Cl)cc32)ccc1OC` [Compound 10o, Methyl-2-(5-((2-(2-(5,6-dichloro-2-(4-methoxyphenyl)-1H-benzo[d]imidazol-1-yl)acetyl)hydrazono)methyl)-2-methoxyphenoxy)acetate], the inhibition at 10 µM in [1] is less than 5%; in [2] it was less than 5%; in [3], 18%; in experiment [4], less than 5%; in experiment [5], 90.3%; in experiment [6], 155%. The inhibition at 10 µM is 29.1% in [7]; less than 5% in [8]; 6.53% in experiment [9]; 16.9% in [10]; less than 5% in experiment [11]; less than 5% in experiment [12]. Also, the inhibition at 10 µM was 14% in experiment [13]; 37% in [14]; less than 5% in experiment [15]; 24.3% in experiment [16]; 45.5% in experiment [17]; 34.6% in experiment [18].

As to `COC(=O)COc1ccc(C=NNC(=O)Cn2c(-c3ccc(OC)cc3)nc3cc(Cl)c(Cl)cc32)cc1OC` [Compound 10p, Methyl-2-(4-((2-(2-(5,6-dichloro-2-(4-methoxyphenyl)-1H-benzo[d]imidazol-1-yl)acetyl)hydrazono)methyl)-2-methoxyphenoxy)acetate], the inhibition at 10 µM in experiment [1] is 58%; in experiment [2], less than 5%; in experiment [3], less than 5%; in [4], less than 5%; in experiment [5] it was 116%; in experiment [6], 143%. The inhibition at 10 µM was less than 5% in [7]; less than 5% in experiment [8]; 6.06% in experiment [9]; 21.1% in [10]; less than 5% in experiment [11]; less than 5% in [12]. For the same compound, the inhibition at 10 µM in [13] is 18.9%; in experiment [14], 16.5%; in experiment [15], 15.1%; in experiment [16], 36.5%; in experiment [17], 31.9%; in experiment [18] it was 37.6%.
